According to patent US20250101062A1, “ANTIMICROBIAL PEPTIDES” (Board of Regents of the University of Nebraska, priority 2023, published 2025):
Converted amounts (≈) assume the structure as drawn. Where no end group is shown, it is not given here.

Tests used:
[1] = test system: human keratinocyte HaCaT cells; assay: Cell viability assay (MTS); type: cell-based
Protocol: Human keratinocyte HaCaT cells were grown in DMEM/high glucose (Hyclone, UT) containing 10% fetal bovine serum (Mediatech, Corning, Manassas, VA). […] The mixture was incubated at 37° C. in 5% CO2 for 24 hours.
HepG2 cells were cultured in ATCC-formulated Eagle's Minimum Essential Medium with 10% FBS. A549 cells were grown in ATCC-formulated F-12K Medium containing 10% FBS.

[2] = test system: MRSA USA300; assay: Inhibition of bacterial attachment; type: cell-based, Staphylococcus aureus; conditions: Example 1, 4× and 8×MIC
Protocol: Inhibition of Bacterial Attachment. Bacterial attachment is the initial step for biofilm formation. For this experiment, an overnight culture of MRSA USA300 was grown overnight in TSB media to an optical density (OD600) of ˜1.0. […] The plates were then incubated at 37° C. for 1 hour. Next, the medium was aspirated and washed with 1×PBS, and 200 μL of TSB containing XTT 10% [2,3-bis(2-methyloxy-4-nitro-5-sulfophenyl)-2H-tertazolium-5-carboxanilide](ATCC, VA) solution was added. After incubation at 37° C. for 2 hours, absorbance was read at 450 nm using a ChroMate™ microtiter plate reader. TSB containing 10% XTT served as a blank, while bacterial culture treated with water served as a positive control. Percentages of viable cells in biofilms were plotted by assuming 100% growth in water treated control.
Bacterial attachment was conducted (Mishra, et al. (2016) ACS Med. Chem. Lett., 77(1):117-121; Duplantier, et al. (2013) Front. Immunol., 4: 143). In brief, an overnight culture of MRSA USA300 or P. aeruginosa E411-17 was grown overnight in TSB media to an optical density (OD600) of ˜1.0. […] The plates were then incubated at 37° C. for 1 hour. […] After incubation at 37° C. for 2 hours, absorbance was read at 450 nm using a ChroMate® microtiter plate reader. […]

[3] = test system: trypsin; conditions: peptide:protease 40:1, 37° C., 1 hour
Protocol: A solution of peptide/protease (40:1 molar ratio) was made in phosphate-buffered saline (PBS; pH 7.1, Gibco, NY) and incubated at 37° C. for 1 hour. As controls, peptides without proteases were also incubated in the same manner. Then, aliquots of 10 μL were transferred to a 96-well polystyrene microplate and mixed with the exponential-phase MRSA USA300 culture as performed in the antibacterial activity assays above.

[4] = test system: S. epidermidis 1457; assay: microbe, parasite or virus in culture; type: cell-based, Staphylococcus epidermidis; conditions: Staphylococcus epidermidis, MHB, Table 8, read-out: Antimicrobial activity (MIC) S. epidermidis 1457
Outline: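 Peptides twofold serially diluted against exponential-phase resistant clinical isolates at ~10^5 CFU/mL in MHB (also diluted MHB, TSB or LB in one protocol), CLSI-based broth microdilution. Incubated overnight at 37° C., OD 600 nm read; MIC taken as lowest concentration without growth, reported as ranges.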

[5] = Effect of MHB dilution on antibacterial activity of a panel of antibiotics; type: cell-based; conditions: MHB from 100 to 12.5%

| Molecule | toxicity to human HaCaT skin cells [1] | anti-attachment ability [2] | activity after protease incubation [3] | MIC [4] [µM] | change in MIC with dilution of MHB [5] |
| --- | --- | --- | --- | --- | --- |
| RRWWRWWR-NH2 [W543] | least toxic | did not show anti-attachment ability | started to lose activity | – | – |
| CCCCCCCCCC(=O)N[C@@H](Cc1c[nH]c2ccccc12)C(=O)N[C@H](CC(N)=O)C(=O)N[C@@H](CC(=O)O)C(=O)N[C@@H]1C(=O)NCC(=O)N[C@@H](CCCN)C(=O)N[C@@H](CC(=O)O)C(=O)N[C@H](C)C(=O)N[C@@H](CC(=O)O)C(=O)NCC(=O)N[C@H](CO)C(=O)N[C@@H]([C@H](C)CC(=O)O)C(=O)N[C@@H](CC(=O)c2ccccc2N)C(=O)O[C@@H]1C [Daptomycin] | – | – | – | 0.5 to 1 (≈ 0.81 to 1.62 µg/mL) | essentially no changes |
